Values after ≈ are worked out from the molar mass of the structure shown. Read-outs that look alike come from different tables or passages of the source. Square brackets hold non-standard residues; d marks the D form. Peptide text beside a SMILES is read from it. * marks the point of attachment. X1 = O=C([C]12[CH]3[CH]4[CH]5[CH]1[Ru]45321678[CH]2[CH]1[CH]6[CH]7[CH]28)*
Key:
[1] = system: Escherichia coli DSM 30083
Method: (§1) The antibacterial activity of the peptides was first assessed by determining their minimum inhibitory concentration (MIC) value. This MIC value represents the lowest concentration of the antibacterial agent that is needed to hinder the growth of the bacteria. For this, six standard bacterial strains – among them three Gram-negative and three Gram-positive pathogens – were incubated with increasing concentrations of the antibacterial peptide (Table 2). In order to put the activities of these RW-based synAMPs and their organometallic conjugates into perspective, two reference peptides were included, i.e., membrane-targeting gramicidin S derivative GS(K2Y2) and cell wall precursor lipid II-targeting vancomycin.
(§2) The minimal inhibitory concentrations (MIC) were tested against Escherichia coli DSM 30083, Acinetobacter baumannii DSM 30007, Pseudomonas aeruginosa DSM 50071, Bacillus subtilis DSM 402, Staphylococcus aureus DSM 20231 (type strain), and Staphylococcus aureus ATCC 43300 (MRSA) in a microtiter plate assay according to CLSI guidelines. E. coli, A. baumannii, S. aureus, and B. subtilis were grown in Mueller–Hinton (MH) broth, P. aeruginosa in cation adjusted Mueller–Hinton II. […] Serial dilution in culture media was carried out automatically with the Tecan Freedom Evo 75 liquid handling workstation (Tecan, Männedorf, Switzerland) from 512 to 0.5 µg/mL. Peptide dilutions were inoculated with 10^5 bacteria/mL taken from late exponential cultures grown in the same media in a total volume of 200 µL per well. Cells were incubated for 16 h at 37 °C. The lowest peptide concentration inhibiting visible bacterial growth was taken as MIC.
(§3) Cells were grown in DMEM until late exponential phase before using them for inoculation. Peptide concentrations, inoculation and incubation were performed as described above.

[2] = system: Acinetobacter baumannii DSM 30007; assay: microbe, parasite or virus in culture
Method: as §1, §2, §3

[3] = system: Bacillus subtilis DSM 402; assay: microbe, parasite or virus in culture; conditions: for Minimum inhibitory concentration, B. subtilis: DSM 402, 16 h
Method: as §1, §2, §3

[4] = system: Staphylococcus aureus DSM 20231 (type strain); assay: microbe, parasite or virus in culture
Method: as §1, §2, §3

[5] = system: M. luteus; assay: MIC in half-concentrated MH broth, polypropylene plates; assay type: cell-based; conditions: 18 h
Method: (§4) Determination of MIC values was performed in 96-well polypropylene microtiter plates (Life Technologies) in order to reduce the AMP binding. A series of 2-fold dilutions of the peptides was prepared directly in the plate in half-concentrated MH broth. The tested strains were grown to an optical density (600 nm) of 0.5 in half-concentrated MH broth and diluted 1:10^5 using the same medium. Then, 100 µL of this suspension was mixed with 100 µL of the peptide solution already prepared in the wells of the microtiter plate as mentioned earlier. […] The results given are mean values of three or more independent determinations.

[6] = system: S. aureus (133); assay: as above; assay type: cell-based; conditions: 133, 18 h
Method: as §4

[7] = system: human red blood cells (hRBCs); assay: Hemolytic activity; assay type: cell-based
Method: (§5) Although an HC50 value was reported for (RW)3 [53], neither the D-amino acid peptide nor the organometallic derivatized peptides were studied with respect to their hemolytic capacity. Therefore, all peptides were tested in parallel to obtain HC50 values under identical conditions.
(§6) After drawing whole blood into anticoagulant containing tubes (BD Vacutainer®, K2 EDTA 3.6 mg, Ref 368841, Lot 1248213), its fractionation was executed with one volume whole blood added to nine volumes sterile 0.9% NaCl and centrifugation (800g, 10 min, 4 °C). Subsequently, the lowest fraction containing all hRBCs was washed twice with nine volumes 1 × PBS (PAA), triturating carefully. The concentrated hRBCs were re-suspended with 1 × PBS to an erythrocyte concentration of 5% (v/v). Wells of a 96-well plate were filled with 100 µL of the appropriate peptide solutions: The peptides were dissolved in 1 × PBS and DMSO (5% for (RW)3 and 50% for RcCO-W(RW)2). These were mixed with 100 µL of the 5% hRBCs solution and incubated under agitation on a flat shaker (170 rpm, 30 min, 37 °C). […] The release of hemoglobin was monitored by measuring the absorbance of the supernatant at 550 nm using an automated 96-well plate reader. […] Toxicity on human cancer cell lines was determined according to previously described procedures.

[8] = system: human breast adenocarcinoma (MCF7); assay type: cell-based
Method: (§7) Finally, to determine whether the peptides are selective for bacterial cells, we tested the toxicity against mammalian cells using three malignant cell lines: human liver carcinoma (HepG2), human colon adenocarcinoma grade II (HT29) and human breast adenocarcinoma (MCF7) cell lines (Table 5).
(§8) After drawing whole blood into anticoagulant containing tubes (BD Vacutainer®, K2 EDTA 3.6 mg, Ref 368841, Lot 1248213), its fractionation was executed with one volume whole blood added to nine volumes sterile 0.9% NaCl and centrifugation (800g, 10 min, 4 °C). Subsequently, the lowest fraction containing all hRBCs was washed twice with nine volumes 1 × PBS (PAA), triturating carefully. The concentrated hRBCs were re-suspended with 1 × PBS to an erythrocyte concentration of 5% (v/v). Wells of a 96-well plate were filled with 100 µL of the appropriate peptide solutions: The peptides were dissolved in 1 × PBS and DMSO (5% for (RW)3 and 50% for RcCO-W(RW)2). These were mixed with 100 µL of the 5% hRBCs solution and incubated under agitation on a flat shaker (170 rpm, 30 min, 37 °C). After sedimenting all probes under centrifugation (800g, 10 min, 4 °C), all supernatants were transferred into a clean 96-well plate. The release of hemoglobin was monitored by measuring the absorbance of the supernatant at 550 nm using an automated 96-well plate reader. Controls for 0 and 100% hemolysis consisted of hRBC 5% (v/v) suspended in PBS containing DMSO in appropriate concentrations and 1% Triton X-100, respectively. Toxicity on human cancer cell lines was determined according to previously described procedures.

[9] = system: human colon adenocarcinoma grade II (HT29); assay type: cell-based
Method: as §7, §8

[10] = system: human liver carcinoma (HepG2); assay type: cell-based
Method: as §7, §8

[11] = system: three human cancer cell lines (HepG2, HT29, MCF7)
Method: Toxicity on human cancer cell lines was determined according to previously described procedures [67–68].

[12] = system: human red blood cells (hRBCs); conditions: cited from earlier work
[13] = system: Staphylococcus aureus ATCC 43300 (MRSA); assay: microbe, parasite or virus in culture
Method: as §1, §2, §3

[14] = system: Pseudomonas aeruginosa DSM 50071; assay: MIC, microtiter plate assay (CLSI); assay type: cell-based; conditions: for Minimum inhibitory concentration, P. aeruginosa: title: in the cell culture medium, CLSI guidelines, µM calculated with one TFA counterion per basic residue
Method: as §1, §2, §3

[15] = Hemolytic activity; assay type: cell-based, human; conditions: human, at 263 µg/mL (192 µM); 50% DMSO/PBS; relative to Triton X-100; read-out: hemolysis of hRBCs
Method: as §5, §6

[16] = title: in the cell culture medium, CLSI guidelines, µM calculated with one TFA counterion per basic residue
[17] = value outside brackets, title: in the cell culture medium

Molecule: N=C(N)NCCCC(N)C(=O)NC(Cc1c[nH]c2ccccc12)C(=O)NC(CCCNC(=N)N)C(=O)NC(Cc1c[nH]c2ccccc12)C(=O)NC(CCCNC(=N)N)C(=O)NC(Cc1c[nH]c2ccccc12)C(N)=O (stereo not drawn) [(RW)3] (H-RWRWRW-NH2; configuration not given here)
- Minimum inhibitory concentration, E. coli ([1]; DSM 30083, 16 h): 21 µM (≈ 21.9 µg/mL)
- Minimum inhibitory concentration, A. baumannii ([2]; DSM 30007, 16 h): 21 µM (≈ 21.9 µg/mL)
- Minimum inhibitory concentration, B. subtilis [3]: 1.3 µM (≈ 1.36 µg/mL)
- Minimum inhibitory concentration, S. aureus ([4]; DSM 20231, 16 h): 11 (11) µM
- MIC, M. luteus [5]: 0.6 ± 0.0 µg/mL (≈ 0.575 µM)
- MIC, S. aureus (133) [6]: 2.1 ± 0.7 µg/mL (≈ 2.01 µM)
- concentration up to which no significant destruction of erythrocytes [7]: up to 500 µg/mL
- IC50 [8]: 159 ± 7 µM
- IC50 [9]: 132 ± 12 µM
- IC50 [10]: 143 ± 21 µM
- IC50 [11]: ~140 µM
- concentration of 50% hemolysis [12]: ~ 250 µM

Molecule: CC(C)C[C@@H]1NC(=O)[C@H](CCCCN)NC(=O)[C@H](C(C)C)NC(=O)[C@@H]2CCCN2C(=O)[C@@H](Cc2ccc(O)cc2)NC(=O)[C@H](CC(C)C)NC(=O)[C@H](CCCCN)NC(=O)[C@H](C(C)C)NC(=O)[C@@H]2CCCN2C(=O)[C@@H](Cc2ccc(O)cc2)NC1=O [GS(K2Y2), cyclo([Pro-Val-Lys-Leu-D-Tyr]2), reference compound] (cyclo(PVKL[dY]PVKL[dY]))
- Minimum inhibitory concentration, B. subtilis [3]: 1.4 µM (≈ 1.68 µg/mL)
- Minimum inhibitory concentration, S. aureus (MRSA) ([13]; ATCC 43300, 16 h): 2.8 µM (≈ 3.36 µg/mL)
- Minimum inhibitory concentration, S. aureus ([4]; DSM 20231, 16 h): 1.4 µM (≈ 1.68 µg/mL)
- Minimum inhibitory concentration, P. aeruginosa [14]: n.a. (‘n.a.’ means ‘not active’ (MIC > 100 μM))

Molecule: N=C(N)NCCC[C@H](NC(=O)[C@H](Cc1c[nH]c2ccccc12)NC(=O)[C@H](CCCNC(=N)N)NC(=O)[C@H](Cc1c[nH]c2ccccc12)NC(=O)[C]12[CH]3[CH]4[CH]5[CH]1[Ru]45321678[CH]2[CH]1[CH]6[CH]7[CH]28)C(=O)N[C@@H](Cc1c[nH]c2ccccc12)C(N)=O (stereo partly drawn) [RcCO-W(RW)2] (X1-WRWRW-NH2)
- hemolysis at 30 min, 192 µM [15]: 64%

Molecule: CN[C@H](CC(C)C)C(=O)N[C@H]1C(=O)N[C@@H](CC(N)=O)C(=O)N[C@H]2C(=O)N[C@H]3C(=O)N[C@H](C(=O)N[C@H](C(=O)O)c4cc(O)cc(O)c4-c4cc3ccc4O)[C@H](O)c3ccc(c(Cl)c3)Oc3cc2cc(c3O[C@@H]2O[C@H](CO)[C@@H](O)[C@H](O)[C@H]2O[C@H]2C[C@](C)(N)[C@H](O)[C@H](C)O2)Oc2ccc(cc2Cl)[C@H]1O [vancomycin, reference compound]
- MIC ([2]; Acinetobacter baumannii, DSM30007, read-out: Minimum inhibitory concentration, A. baumannii): 38 µM (≈ 55.1 µg/mL)
- MIC ([3]; Bacillus subtilis, DSM402, read-out: Minimum inhibitory concentration, B. subtilis): 0.3 µM (≈ 0.435 µg/mL)
- MIC ([13]; Staphylococcus aureus, ATCC43300|MRSA, read-out: Minimum inhibitory concentration, S. aureus (MRSA)): 0.6 µM (≈ 0.87 µg/mL)
- MIC ([4]; Staphylococcus aureus, DSM20231, read-out: Minimum inhibitory concentration, S. aureus): 0.3 µM (≈ 0.435 µg/mL)
- MIC ([14]; Pseudomonas aeruginosa, DSM50071, read-out: Minimum inhibitory concentration, P. aeruginosa): > 100 µM

Molecule: Ac-RWRWRW-NH2 [Ac(RW)3, Ac-RWRWRW-NH2]
- Minimum inhibitory concentration, E. coli ([1]; DSM 30083, 16 h): 45 µM
- Minimum inhibitory concentration, B. subtilis [3]: 45 µM

Molecule: FcCO-RWRWRW-NH2 [FcCO-(RW)3]
- Minimum inhibitory concentration, E. coli [1, 16]: 20 µM

Molecule: H-KWKWKW-NH2 [(KW)3]
- Minimum inhibitory concentration, E. coli [1, 16]: n.a. (‘n.a.’ means ‘not active’ (MIC > 100 μM))
- Minimum inhibitory concentration, A. baumannii [2, 16]: n.a. (‘n.a.’ means ‘not active’ (MIC > 100 μM))
- Minimum inhibitory concentration, S. aureus (MRSA) [13, 17]: n.a. (‘n.a.’ means ‘not active’ (MIC > 100 μM))
- Minimum inhibitory concentration, S. aureus [4, 17]: n.a. (‘n.a.’ means ‘not active’ (MIC > 100 μM))
- Minimum inhibitory concentration, P. aeruginosa [14]: n.a. (‘n.a.’ means ‘not active’ (MIC > 100 μM))

— article PMC3511009, “Modulating the activity of short arginine-tryptophan containing antibacterial peptides with N-terminal metallocenoyl groups” (Beilstein Journal of Organic Chemistry, 2012)
